Activity data for six molecules are collected here from ChEMBL document CHEMBL4342452, “Water-Soluble Glutamic Acid Derivatives Produced in Culture by Penicillium solitum IS1-A from King George Island, Maritime Antarctica” (J Nat Prod, 2020).

Activity calls are given as the source filed them. The rule behind the calls is not given here.

In one data set the test system is Enterococcus faecalis. The data set is described as follows: Antibacterial activity against Enterococcus faecalis ATCC 29212 incubated for 18 hrs by microdilution method. Type of data set: functional, organism-based.
Another data set has as its system Pseudomonas aeruginosa. Description: Antibacterial activity against Pseudomonas aeruginosa ATCC 27853 incubated for 18 hrs by microdilution method. The class given is functional, organism-based.
The subject of the next data set is Staphylococcus aureus. Description: Antibacterial activity against Staphylococcus aureus ATCC 29213 incubated for 18 hrs by microdilution method. The class given is functional, organism-based. On the technique in general: In broth dilution the organism is exposed to a series of concentrations in liquid medium.
The next data set has as its system Klebsiella pneumoniae. Description: Antibacterial activity against Klebsiella pneumoniae ATCC 700603 incubated for 18 hrs by microdilution method. The class given is functional, organism-based.
In the next data set the test system is MCF7. The data set is described as follows: Cytotoxicity against human MCF7 cells after 24 hrs by tetrazolium dye based assay. The class given is functional, cell-based.
The subject of the next data set is A549. Description: Cytotoxicity against human A549 cells after 24 hrs by tetrazolium dye based assay. The class given is functional, cell-based.
In a further data set the test system is HeLa. Description: Cytotoxicity against human HeLa cells after 24 hrs by tetrazolium dye based assay. Type of data set: functional, cell-based.
Another data set deals with MCF-10A. Description: Cytotoxicity against human MCF10A cells after 24 hrs by tetrazolium dye based assay. Type of data set: cell-based.
Another data set is filed under the species Homo sapiens. The data set is described as follows: Cytotoxicity against human ACP01 cells after 24 hrs by tetrazolium dye based assay. The class given is functional, cell-based.

For the molecule `C=CC(C)(C)c1[nH]c2ccccc2c1CCNC(=O)CC[C@H](O)C(=O)O`, the result with Enterococcus faecalis, in the data set with Pseudomonas aeruginosa, with Staphylococcus aureus, in the data set on Klebsiella pneumoniae, in the data set with MCF7 and in the data set on A549 was inactive. Besides, the result with HeLa and in the data set listed under Homo sapiens was inactive. The Activity result in the data set on MCF-10A is recorded as “Non-Toxic”.

Turning to `C=CC(C)(C)[C@@]1(CCNC(=O)CC[C@H](N)C(=O)O)C(=O)Nc2ccccc21`, the result with Enterococcus faecalis, in the data set with Pseudomonas aeruginosa, with Staphylococcus aureus, in the data set on Klebsiella pneumoniae, with MCF7 and in the data set with A549 was inactive. Moreover, the result with HeLa and in the data set listed under Homo sapiens was inactive. The Activity result in the data set on MCF-10A is given as “Non-Toxic”.

As for `C=CC(C)(C)c1[nH]c2ccccc2c1CCNC(=O)CC[C@H](N)C(=O)O`, the outcome in the data set on Enterococcus faecalis, in the data set with Pseudomonas aeruginosa, in the data set with Staphylococcus aureus, with Klebsiella pneumoniae, with MCF7 and with A549 was inactive. In addition, the outcome in the data set with HeLa and in the data set listed under Homo sapiens was inactive. Moreover, the Activity entry in the data set on MCF-10A is “Non-Toxic”.

Turning to `C=CC(C)(C)C(=O)Nc1ccccc1C(=O)CCNC(=O)CC[C@H](N)C(=O)O`, the outcome with Enterococcus faecalis, in the data set on Pseudomonas aeruginosa, in the data set on Staphylococcus aureus, in the data set on Klebsiella pneumoniae, in the data set on MCF7 and in the data set with A549 was inactive. Also, the result in the data set on HeLa and in the data set filed under Homo sapiens was inactive. Moreover, the Activity result in the data set with MCF-10A is reported as “Non-Toxic”.

Turning to `C=CC(C)(C)c1[nH]c2ccccc2c(=O)c1CNC(=O)CC[C@H](N)C(=O)O`, the outcome in the data set with Enterococcus faecalis, with Pseudomonas aeruginosa, with Staphylococcus aureus, in the data set on Klebsiella pneumoniae, in the data set on MCF7 and with A549 was inactive. The outcome in the data set on HeLa and in the data set listed under Homo sapiens was inactive. For the same molecule, in the data set on MCF-10A, the Activity entry is given as “Non-Toxic”.

On to `C=CC(C)(C)[C@H]1Nc2ccccc2C(=O)[C@@H]1CNC(=O)CC[C@H](N)C(=O)O`, for which the outcome in the data set with Enterococcus faecalis, in the data set with Pseudomonas aeruginosa, in the data set on Staphylococcus aureus, in the data set with Klebsiella pneumoniae, in the data set on MCF7 and in the data set on A549 was inactive. Besides, the result with HeLa and in the data set listed under Homo sapiens was inactive. The Activity entry in the data set on MCF-10A is “Non-Toxic”.
